Reference: patent US4891432A, “Phenoxy imidazole compound” (Yamanouchi Pharmaceutical Co., Ltd., priority 1986, dated 1990)
Like-named read-outs stand apart in the source and are kept apart here.

Key:
[1] = tested on: mouse leukemia L1210 cells; experiment: Effectiveness against mouse leukemia L1210 cells (in vitro test), cytotoxicity by trypan blue dye exclusion; format: cell-based; settings: L1210 cells, 3 days, 37° C., read-out: IC50 (mean dose producing 50%-killing of tumor cells)
Description: Effectiveness against mouse leukemia L1210 cells (in vitro test)
A suspension of cells in culture medium was transferred into wells in a microplate in an amount of 1×10^5 L1210-cells/well. Test sample diluted with a culture medium was added to the suspension in each well, and the mixture was incubated on the medium at 37° C. for 3 days in an atmosphere of air containing 5% carbon dioxide.
Thereafter, the incubated cells were recovered from the microplate and the number of live cells was counted by the dye exclusion test using a 0.5% solution of trypan blue and by using a hemocytometer.

Ehrlich solid tumor = experiment: Test 2: Anti-tumor test against Ehrlich solid tumor; format: in vivo, ddY/SLC mice; settings: i.p., days 1 through 9, tumor weight day 21; for inhibition in vivo at 100 mg/kg / inhibition in vivo at 50 mg/kg: Mus musculus, Ehrlich, ip, 504 h, read-out: Growth Inhibition Rate
Description: Anti-tumor test against Ehrlich solid tumor
Ehrlich tumor cells, 2×10^6, on Day 7 after intraperitoneal transplantation to ddY/SLC mice, were subcutaneously transplanted in the left abdomen of ddY/SLC mice (5week age, male)--10 to a group. The active component was intraperitoneally administered in a definite dose 24 hours after the transplantation. (administration: once per one day; 1 through 9 days)
Growth inhibition rate (%)=(C-T)/C×100
T: mean tumor weight in the active component-administered group
c: mean tumor weight in the control group

Compound | IC50 ([1]; Mus musculus, 72 h) [µM] | inhibition in vivo at 100 mg/kg (Ehrlich solid tumor; 100 mg/kg) [%] | further results
CCOC(=O)C(C)(C)CCCCOc1ccc(OCCCCCOc2ccccn2)cc1 [Example 35, ethyl 6-[p-[5-(2-pyridyloxy)pentyloxy]phenoxy]-2,2-dimethylhexanoate] | 8.6 | 35.9 | 
CCOC(=O)C(C)(C)CCCCOc1ccc(OCCCCCn2cncn2)cc1 [Example 48, ethyl 6-[p-[5-(1,2,4-triazol-1-yl)pentyloxy]phenoxy]-2,2-dimethylhexanoate] | 5.5 | 46.3 | 
CCOC(=O)C(C)(C)CCCCOc1ccc(OCCCCCSc2nc3ccccc3s2)cc1 [Example 26] | 42.7 | 30 | 
CCOC(=O)COc1ccc(OCCCCCn2ccnc2)cc1 [Example 10, ethyl p-[5-(1-imidazol-yl)pentyloxy]phenoxyacetate] |  | 23.7 | 
CCOC(=O)C(C)(C)CCCCOc1ccc(OCCCCCSc2nc3ncccc3[nH]2)cc1 [Example 43, ethyl 6-[p-[5-(1H-imidazo[4,5-b]pyridin-2-ylthio)pentyloxy]phenoxy]-2,2-dimethylhexanoate] | 8 | 55.5 | 
CC(C)(CCCCOc1ccc(OCCCCCn2ccnc2)cc1)C(=O)NC1CCCCC1 [Example 52] | 3.6 | 55.7 | 
COc1ccc(OCCCCCn2ccnc2)cc1 [Example 11, 1-[5-(1-imidazolyl)pentyloxy]-4-methoxybenzene] | 40 | 33.4 | 
CCOC(=O)C(C)(C)CCCCOc1ccc(OCCCCCOCc2ccccn2)cc1 [Example 17] | 13.7 |  | inhibition in vivo at 50 mg/kg (Ehrlich solid tumor; 50 mg/kg): 36.6%
CC(C)(C#N)CCCCOc1ccc(OCCCCCn2ccnc2)cc1 [Example 55, 6-[p-[5-(1-imidazolyl)pentyloxy]phenoxy]-2,2-dimethylhexane-nitrile] | 3.8 |  | inhibition in vivo at 50 mg/kg (Ehrlich solid tumor; 50 mg/kg): 63.1%
CCOC(=O)C(C)(C)CCCCOc1ccc(OCCCCCn2cccn2)cc1 [Example 16] | 8.2 | 42.2 | 
CC(C)(CCCCOc1ccc(OCCCCCn2ccnc2)cc1)C(N)=O [Example 1, 6-[p-[5-(1-imidazol-yl)pentyloxy]phenoxy]-2,2-dimethylhexanamide] | 7.2 | 68.5 | 
CCOC(=O)C(C)(C)CCCCOc1ccc(OCCCCCOc2ccncc2)cc1 [Example 41] | 7.4 | 38.7 | 
CNC(=O)C(C)(C)CCCCOc1ccc(OCCCCCn2ccnc2)cc1 [Example 49, 6-[p-[5-(1-imidazolyl)pentyloxy]phenoxy]-2,2-dimethylhexanoic acid methylamide] | 5.5 |  | 
CCCCCCCCCCNC(=O)C(C)(C)CCCCOc1ccc(OCCCCCn2ccnc2)cc1 [Example 51] | 0.6 |  | inhibition in vivo at 50 mg/kg (Ehrlich solid tumor; 50 mg/kg): 42.5%
CC(C)(CCCCOc1ccc(OCCCCCn2ccnc2)cc1)C(=O)Nc1ccccc1 [Example 53] | 4.3 | 49.3 | 
CCOC(=O)C(C)(C)CCCCOc1ccc(OCCCCCSc2nc3ccccc3[nH]2)cc1 [Example 27] | 4.2 |  | 
CCOC(=O)C(C)(C)CCCCOc1ccc(OCCCCCn2cnc3ccccc32)cc1 [Example 36] | 3.8 |  | 
6-[3-[6-[5-(1-imidazolyl]pyridadyloxy]]-2,2-dimethylhexanoic acid ethyl ester [Example 60] |  |  | IC50 [1]: 3.7 µM; Growth Inhibition Rate (Ehrlich solid tumor; 50 mg/kg): 40.5%
CCOC(=O)C(C)(C)CCCCOc1ccc(OCCCCCSc2nnnn2C)cc1 [Example 22, ethyl 6-[p-[5-(1-methyl-5-tetrazolylmercapto)pentyloxy]phenoxy]-2,2-dimethylhexanoate] | 6.7 | 40.2 | 
CCOC(=O)C(C)(C)CCCCOc1ccc(OCCCCCSc2nccn2C)cc1 [Example 20] | 8.2 | 52.8 | 
CCOC(=O)C(C)(C)CCCCOc1ccc(OCCCCCSc2nnc(N)s2)cc1 [Example 33] | 7.7 | 59.5 | 
CC(C)(CCCCOc1ccc(OCCCCCSc2ccncc2)cc1)C(N)=O [Example 31] | 2.6 | 48.9 | 
CCOC(=O)C(C)(C)CCCCOc1ccc(OCCCCCSc2ncccn2)cc1 [Example 24, ethyl 6-[p-[5-(2-pyrimidylthio)pentyloxy]phenoxy]-2,2-dimethylhexanoate] | 20.6 | 31.7 | 
CC(C)(C)OC(=O)C(C)(C)CCCCOc1ccc(OCCCCCn2ccnc2)cc1 [Example 6] | 6.8 | 43.8 | 
OCCCCCCOc1ccc(OCCCCCn2ccnc2)cc1 [Example 9] | 12 | 30.7 | 

Compound | IC50 ([1]; Mus musculus, 72 h) [µM] | inhibition in vivo at 100 mg/kg (Ehrlich solid tumor; 100 mg/kg) [%] | further results
CN(C)C(=O)C(C)(C)CCCCOc1ccc(OCCCCCn2ccnc2)cc1 [Example 50] | 1.8 |  | 
CCOC(=O)C(C)(C)CCCCOc1ccc(OCCCCCOCCc2ccccn2)cc1 [Example 18] | 9.5 | 34.9 | 
CC(C)(CCCCOc1ccc(OCCCCCn2ccnc2)cc1)C(=O)NCc1ccccc1 [Example 3] | 4 |  | inhibition in vivo at 50 mg/kg (Ehrlich solid tumor; 50 mg/kg): 58.5%
CCOC(=O)C(C)(C)CCCCOc1ccc(OCCCCCOCc2cccnc2)cc1 [Example 13, ethyl 6-[p-[5-(3-pyridylmethyloxy)pentyloxy]phenoxy]-2,2-dimethylhexanoate] | 7.6 |  | 
Cn1nnnc1SCCCCCOc1ccc(OCCCCC(C)(C)C(N)=O)cc1 [Example 34] | 4 |  | 
CCOC(=O)C(C)(C)CCCCOc1ccc(OCCCCCOc2cccnc2)cc1 [Example 14] | 4.2 |  | 
NC(=O)CCCCCOc1ccc(OCCCCCn2ccnc2)cc1 [Example 56] | 13.8 | 30.2 | 
CCOC(=O)C(C)(C)CCCCOc1cccc(OCCCCCn2ccnc2)c1 [Example 37] | 4.6 |  | 
CCOC(=O)C(C)(C)CCCCOc1ccc(OCCCCCSC2=NCCS2)cc1 [Example 25] | 23.5 |  | 
6[p-[5-(1-imidazolyl)pentyloxy]phenoxy]-2,2-dimethylhexaneheptylamide [Example 61] |  |  | IC50 [1]: 5.9 µM; Growth Inhibition Rate (Ehrlich solid tumor; 100 mg/kg): 38.9%
CCOC(=O)C(C)(C)CCCCOc1ccc(OCCCCCSc2ccncc2)cc1 [Example 19, ethyl 6-[p-[5-(4-pyridylmercapto)pentyloxy]phenoxy]-2,2-dimethylhexanoate] | 5.7 | 47.6 | 
CCOC(=O)C(C)(C)CCCCOc1ccc(OCCCCCSc2ncnc3[nH]cnc23)cc1 [Example 32] | 2.2 | 57.5 | 
CCOC(=O)C(C)(C)CCCCOc1ccc(OCCCCCSc2nccc(O)n2)cc1 [Example 28] | 18.9 |  | 
CCOC(=O)C(C)(C)CCCCOc1ccc(OCCCCCn2cnc3cncnc32)cc1 [Example 39] | 4.1 |  | 
CCOC(=O)C(C)(C)CCCCOc1ccc(OCCCCCSc2cccc[n+]2[O-])cc1 [Example 23] | 6.1 |  | 
COC(=O)CCCCC(=O)Oc1ccc(OCCCCCn2ccnc2)cc1 [Example 12] | 8.5 |  | 
CC(C)NC(=O)C(C)(C)CCCCOc1ccc(OCCCCCn2ccnc2)cc1 [Example 2] | 7.5 |  | inhibition in vivo at 50 mg/kg (Ehrlich solid tumor; 50 mg/kg): 52.9%
CCCCCCCCCOc1ccc(OCCCCCn2ccnc2)cc1 [Example 7, [p-[5-(1-imidazolyl)pentyloxy]phenoxy]nonane] | 11 | 45 | 
Cn1ccnc1SCCCCCOc1ccc(OCCCCC(C)(C)C(N)=O)cc1 [Example 30] | 2.3 | 60.9 | 
CC(C)(CCCCOc1ccc(OCCCCCSc2nc3cccnc3[nH]2)cc1)C(N)=O [Example 44] | 3.7 | 46.1 | 
CCOC(=O)C(C)(C)CCCCOc1ccc(OCCCCCOc2ccccc2-c2ccccc2)cc1 [Example 40] |  | 46.9 | 
CCOC(=O)C(C)(C)CCCCSc1nnc(SCCCCCn2ccnc2)s1 [Example 42, ethyl 6-[2-[5-(1-imidazolyl)pentylthio)-1,3,4-thiadiazol-5-ylthio]-2,2-dimethylhexanoate] | 4.4 |  | inhibition in vivo at 50 mg/kg (Ehrlich solid tumor; 50 mg/kg): 53.1%
CC(C)(CCCCOc1ccc(OCCCCCn2ccnc2)cc1)C(=O)OCc1ccccc1 [Example 5, benzyl 6-[p-[5-(1-imidazolyl)pentyloxy]phenoxy]-2,2-dimethylhexanoate] | 6.3 | 39.3 | 
CCOC(=O)C(C)(C)CCCCOc1ccc(OCCCCCn2cccc2)cc1 [Example 15] | 28.9 | 38.8 | 
CC(C)(CCCCOc1ccc(OCCCCCn2cccn2)cc1)C(N)=O [Example 4] | 4.9 | 50.1 | 
